# Test results reported in ChEMBL document CHEMBL1146832, “N-Benzylindole-2-carboxylic acids: potent functional antagonists of the CCR2b chemokine receptor” (Bioorg Med Chem Lett, 2004).
# Biological target: C-C chemokine receptor type 2 (Homo sapiens, UniProt P41597)
# Assay: Inhibition of human C-C chemokine receptor type 2
# C-C chemokine receptor type 2, sequence (P41597 whole entry): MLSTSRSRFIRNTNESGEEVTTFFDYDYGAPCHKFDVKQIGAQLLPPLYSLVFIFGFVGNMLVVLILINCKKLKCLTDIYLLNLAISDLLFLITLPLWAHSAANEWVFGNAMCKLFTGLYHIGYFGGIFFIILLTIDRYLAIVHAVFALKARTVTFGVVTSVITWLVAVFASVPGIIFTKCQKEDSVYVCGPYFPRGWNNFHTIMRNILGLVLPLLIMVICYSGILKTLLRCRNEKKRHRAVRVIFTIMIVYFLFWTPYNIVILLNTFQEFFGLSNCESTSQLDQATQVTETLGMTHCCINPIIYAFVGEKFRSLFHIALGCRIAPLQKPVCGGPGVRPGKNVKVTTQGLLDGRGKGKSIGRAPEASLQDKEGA
row,Structure (SMILES),IC50 [µM]
1,O=C(O)c1cc2ccccc2n1S(=O)(=O)c1ccc(Cl)c(Cl)c1,1.02
2,COc1ccc2cc(C(=O)O)n(Cc3ccc(Cl)c(Cl)c3)c2c1,2.3
3,COc1cccc2c1cc(C(=O)O)n2Cc1ccc(Cl)c(Cl)c1,0.28
4,O=C(O)c1cc2ccccc2n1Cc1cccc(Cl)c1,1.13
5,O=C(O)c1cc2c(F)cccc2n1Cc1ccc(Cl)c(Cl)c1,0.099
6,Nc1ccc2cc(C(=O)O)n(Cc3ccc(Cl)c(Cl)c3)c2c1,12.6
7,O=C(NS(=O)(=O)c1ccccc1)c1cc2ccccc2n1Cc1ccc(Cl)c(Cl)c1,4.78
8,Cc1ccc(Cn2c(C(=O)O)cc3cc(Cl)ccc32)cc1Cl,0.12
9,O=C(O)c1cc2cccc(Cl)c2n1Cc1ccc(Cl)c(Cl)c1,0.34
10,Nc1ccc2c(c1)cc(C(=O)O)n2Cc1ccc(Cl)c(Cl)c1,0.5
11,O=C(O)c1cc2ccc(Cl)cc2n1Cc1ccc(Cl)c(Cl)c1,0.34
12,O=C(O)c1cc2c(C(F)(F)F)cccc2n1Cc1ccc(Cl)c(Cl)c1,1.19
13,O=C(O)c1cc2cc([N+](=O)[O-])ccc2n1Cc1ccc(Cl)c(Cl)c1,0.39
14,O=C(O)c1cc2c([N+](=O)[O-])cccc2n1Cc1ccc(Cl)c(Cl)c1,1.31
15,O=C(NS(=O)(=O)C(F)(F)F)c1cc2cc(F)ccc2n1Cc1ccc(Cl)c(Cl)c1,0.37
16,O=C(O)c1c(Cl)c2ccccc2n1Cc1ccc(Cl)c(Cl)c1,0.26
17,Clc1ccc(Cn2c(-c3nn[nH]n3)cc3ccccc32)cc1Cl,1.03
18,NC(=O)c1cc2ccccc2n1Cc1ccc(Cl)c(Cl)c1,12.7
19,CS(=O)(=O)c1ccc2c(c1)cc(C(=O)O)n2Cc1ccc(Cl)c(Cl)c1,2.2
20,O=C(O)c1cc2cccc([N+](=O)[O-])c2n1Cc1ccc(Cl)c(Cl)c1,10.8
21,COc1cccc2cc(C(=O)O)n(Cc3ccc(Cl)c(Cl)c3)c12,1.21
22,O=C(O)c1cc2ccccc2n1Cc1ccc(Cl)c(Cl)c1,0.23
23,O=C(O)c1cc2ccccc2n1Cc1ccc(-c2ccccc2)cc1,> 50
24,O=C(O)c1cc2ccccc2n1Cc1ccc(Cl)cc1,1.36
25,N#Cc1cccc(Cn2c(C(=O)O)cc3cc(Cl)ccc32)c1,2
26,O=C(O)c1c(C(=O)O)n(Cc2ccc(Cl)c(Cl)c2)c2ccccc12,0.096
27,CS(=O)(=O)c1cccc2c1cc(C(=O)O)n2Cc1ccc(Cl)c(Cl)c1,3.88

row,Structure (SMILES),IC50 [µM]
1,COc1ccc(Cn2c(C(=O)O)cc3cc(Cl)ccc32)cc1,5.77
2,O=C(O)c1cc2cc(Cl)ccc2n1Cc1cccc([N+](=O)[O-])c1,0.65
3,O=C(O)c1cc2cccc(C(F)(F)F)c2n1Cc1ccc(Cl)c(Cl)c1,1.27
4,O=C(O)c1cc2cc(Cl)ccc2n1Cc1ccc(Cl)c(Cl)c1,0.11
5,O=C(O)c1cc2ccc(F)cc2n1Cc1ccc(Cl)c(Cl)c1,0.09
6,O=C(O)c1cc2ccc([N+](=O)[O-])cc2n1Cc1ccc(Cl)c(Cl)c1,1.64
7,Cc1ccc(Cn2c(C(=O)O)cc3cc(Cl)ccc32)cc1C,0.22
8,O=C(O)c1cc2ccc(C(F)(F)F)cc2n1Cc1ccc(Cl)c(Cl)c1,1.05
9,O=C(O)c1cc2cc(Cl)ccc2n1Cc1ccc(OCc2ccccc2)cc1,> 50
10,O=C(O)c1cccc(Cn2c(C(=O)O)cc3cc(Cl)ccc32)c1,27
11,O=C(O)c1cc2ccccc2n1Cc1ccccc1,1.7
12,COc1c(C(=O)O)n(Cc2ccc(Cl)c(Cl)c2)c2ccccc12,0.77
13,Nc1cccc2c1cc(C(=O)O)n2Cc1ccc(Cl)c(Cl)c1,0.23
14,O=C(O)c1cc2c(-c3ccccc3)cccc2n1Cc1ccc(Cl)c(Cl)c1,0.64
15,O=C(O)c1cc2cc(-c3ccccc3)ccc2n1Cc1ccc(Cl)c(Cl)c1,8.6
16,CS(=O)(=O)NC(=O)c1cc2ccccc2n1Cc1ccc(Cl)c(Cl)c1,6.09
17,O=C(O)c1cc2ccccc2n1C(=O)c1ccc(Cl)c(Cl)c1,> 50
18,O=C(O)c1cc2c(Cl)cccc2n1Cc1ccc(Cl)c(Cl)c1,0.15
19,COc1cccc(Cn2c(C(=O)O)cc3cc(Cl)ccc32)c1,3.01
20,N#Cc1c(C(=O)O)n(Cc2ccc(Cl)c(Cl)c2)c2ccccc12,0.3
21,O=C(O)c1cc2cc(Cl)ccc2n1Cc1ccccc1Cl,1.48
22,O=C(O)c1cc2cc(C(F)(F)F)ccc2n1Cc1ccc(Cl)c(Cl)c1,0.17
23,O=C(O)c1cc2ccc(-c3ccccc3)cc2n1Cc1ccc(Cl)c(Cl)c1,12.3
24,COc1ccc2c(c1)cc(C(=O)O)n2Cc1ccc(Cl)c(Cl)c1,0.41
25,O=C(O)c1cc2cc(F)ccc2n1Cc1ccc(Cl)c(Cl)c1,0.056
26,O=C(O)c1cc2cccc(F)c2n1Cc1ccc(Cl)c(Cl)c1,0.125
